Data as given in patent US12258327B2, “5-membered heteroaryl-containing aminopyridine compounds as EGFR inhibitors” (YUHAN CORPORATION, priority 2021, dated 2025).
Read-outs that look alike come from different tables or passages of the source.

Key:
EGFR del19/C797S = EGFR del19/C797S (Homo sapiens, UniProt P00533, C797S/DEL746-750); assay: Biochemical EGFR kinase assay (Lance Ultra TR-FRET), double mutant del19/C797S
Method: (§1) Biochemical EGFR kinase assays were conducted using Lance Ultra time-resolved fluorescence resonance energy transfer (TR-FRET) technology from Perkin-Elmer. Compounds of the invention were initially diluted to 20 mM in 100% DMSO for storage and made into kinase buffer solution to create a compound concentration ranging from 0.003 μM and 10 μM.
(§2) Each kinase reactions were incubated at room temperature for 1 hour and then stopped by the addition of 4 μL of stop solution (10 mM EDTA). The specific Europium-labeled-anti-phosphopeptide antibody (PerkinElmer, AD0069) diluted in LANCE detection buffer was then added to a final concentration of 2 nM. After 60 minutes incubation at room temperature the LANCE signal was measured on an EnVision Multilabel Reader (Perkin-Elmer). Excitation wavelength was set at 320 nm and emission monitored at 615 nm (donor) and 665 nm (acceptor). The IC50 values were determined using GraphPad prism software (GraphPad Software, Inc., San Diego, CA, USA).

EGFR L858R/T790M/C797S = EGFR L858R/T790M/C797S (Homo sapiens, UniProt P00533, C797S/L858R/T790M); assay: Biochemical EGFR kinase assay (Lance Ultra TR-FRET), triple mutant L858R/T790M/C797S
Method: as §1, §2

EGFR L858R/C797S = EGFR L858R/C797S (Homo sapiens, UniProt P00533, C797S/L858R); assay: Biochemical EGFR kinase assay (Lance Ultra TR-FRET), double mutant L858R/C797S
Method: as §1, §2

EGFR wildtype (WT) = EGFR wildtype (WT) (Homo sapiens, UniProt P00533); assay: Biochemical EGFR kinase assay (Lance Ultra TR-FRET), wildtype
Method: as §1, §2

EGFR del19/T790M/C797S = EGFR del19/T790M/C797S (Homo sapiens, UniProt P00533, C797S/DEL746-750/T790M); assay: Biochemical EGFR kinase assay (Lance Ultra TR-FRET), triple mutant del19/T790M/C797S
Method: as §1, §2

[1] = Km ATP, read-out: IC50 del19/C797S (nM) Km ATP
[2] = Km ATP, read-out: IC50 L858R/T790M/C797S (nM) Km ATP
[3] = Km ATP, read-out: IC50 L858R/C797S (nM) Km ATP
[4] = Km ATP, read-out: IC50 WT (nM) Km ATP
[5] = Km ATP, read-out: IC50 del19/T790M/C797S (nM) Km ATP
[6] = IC50 del19/C797S (nM) 100 μM ATP, 100 μM ATP
[7] = IC50 L858R/T790M/C797S (nM) 100 μM ATP, 100 μM ATP
[8] = IC50 L858R/C797S (nM) 100 μM ATP, 100 μM ATP
[9] = IC50 WT (nM) 100 μM ATP, 100 μM ATP
[10] = Km ATP, read-out: IC50 del19/C797S, Km ATP
[11] = Km ATP, read-out: IC50 L858R/T790M/C797S, Km ATP
[12] = Km ATP, read-out: IC50 L858R/C797S, Km ATP
[13] = Km ATP, read-out: IC50 WT, Km ATP

Sequence of EGFR L858R/C797S (P00533 25-1210 C797S/L858R): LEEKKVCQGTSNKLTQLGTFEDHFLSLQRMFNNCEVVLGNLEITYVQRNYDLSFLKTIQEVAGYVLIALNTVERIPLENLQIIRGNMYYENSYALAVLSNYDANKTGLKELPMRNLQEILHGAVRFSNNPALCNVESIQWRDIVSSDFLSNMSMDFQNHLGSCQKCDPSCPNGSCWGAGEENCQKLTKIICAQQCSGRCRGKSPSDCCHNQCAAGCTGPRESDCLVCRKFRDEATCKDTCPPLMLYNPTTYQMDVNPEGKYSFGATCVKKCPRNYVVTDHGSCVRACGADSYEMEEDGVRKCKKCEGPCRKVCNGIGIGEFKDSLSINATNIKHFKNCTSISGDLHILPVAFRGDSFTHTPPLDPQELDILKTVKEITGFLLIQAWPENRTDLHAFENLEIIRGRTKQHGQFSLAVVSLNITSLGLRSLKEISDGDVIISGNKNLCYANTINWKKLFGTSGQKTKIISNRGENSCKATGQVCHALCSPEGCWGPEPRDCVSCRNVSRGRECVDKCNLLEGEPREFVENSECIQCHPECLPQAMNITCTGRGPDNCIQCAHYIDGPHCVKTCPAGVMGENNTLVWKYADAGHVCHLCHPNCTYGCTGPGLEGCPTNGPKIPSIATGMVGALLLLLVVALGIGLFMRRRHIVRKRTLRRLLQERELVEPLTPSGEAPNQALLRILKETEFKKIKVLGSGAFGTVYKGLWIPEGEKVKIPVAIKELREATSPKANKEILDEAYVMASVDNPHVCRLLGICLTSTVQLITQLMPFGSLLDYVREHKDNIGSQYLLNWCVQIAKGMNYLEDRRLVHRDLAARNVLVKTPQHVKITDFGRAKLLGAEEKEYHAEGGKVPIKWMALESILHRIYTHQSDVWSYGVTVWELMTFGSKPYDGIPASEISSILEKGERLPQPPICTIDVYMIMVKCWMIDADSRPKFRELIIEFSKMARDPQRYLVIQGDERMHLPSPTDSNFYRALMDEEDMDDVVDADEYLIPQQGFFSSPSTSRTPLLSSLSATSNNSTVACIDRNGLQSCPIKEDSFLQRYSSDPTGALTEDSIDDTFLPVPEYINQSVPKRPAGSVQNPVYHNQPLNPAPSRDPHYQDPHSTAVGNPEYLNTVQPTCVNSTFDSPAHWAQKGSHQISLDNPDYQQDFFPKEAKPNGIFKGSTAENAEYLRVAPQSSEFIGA
Sequence of EGFR del19/C797S (P00533 with tags, fused parts or gaps DEL746-750/C797S): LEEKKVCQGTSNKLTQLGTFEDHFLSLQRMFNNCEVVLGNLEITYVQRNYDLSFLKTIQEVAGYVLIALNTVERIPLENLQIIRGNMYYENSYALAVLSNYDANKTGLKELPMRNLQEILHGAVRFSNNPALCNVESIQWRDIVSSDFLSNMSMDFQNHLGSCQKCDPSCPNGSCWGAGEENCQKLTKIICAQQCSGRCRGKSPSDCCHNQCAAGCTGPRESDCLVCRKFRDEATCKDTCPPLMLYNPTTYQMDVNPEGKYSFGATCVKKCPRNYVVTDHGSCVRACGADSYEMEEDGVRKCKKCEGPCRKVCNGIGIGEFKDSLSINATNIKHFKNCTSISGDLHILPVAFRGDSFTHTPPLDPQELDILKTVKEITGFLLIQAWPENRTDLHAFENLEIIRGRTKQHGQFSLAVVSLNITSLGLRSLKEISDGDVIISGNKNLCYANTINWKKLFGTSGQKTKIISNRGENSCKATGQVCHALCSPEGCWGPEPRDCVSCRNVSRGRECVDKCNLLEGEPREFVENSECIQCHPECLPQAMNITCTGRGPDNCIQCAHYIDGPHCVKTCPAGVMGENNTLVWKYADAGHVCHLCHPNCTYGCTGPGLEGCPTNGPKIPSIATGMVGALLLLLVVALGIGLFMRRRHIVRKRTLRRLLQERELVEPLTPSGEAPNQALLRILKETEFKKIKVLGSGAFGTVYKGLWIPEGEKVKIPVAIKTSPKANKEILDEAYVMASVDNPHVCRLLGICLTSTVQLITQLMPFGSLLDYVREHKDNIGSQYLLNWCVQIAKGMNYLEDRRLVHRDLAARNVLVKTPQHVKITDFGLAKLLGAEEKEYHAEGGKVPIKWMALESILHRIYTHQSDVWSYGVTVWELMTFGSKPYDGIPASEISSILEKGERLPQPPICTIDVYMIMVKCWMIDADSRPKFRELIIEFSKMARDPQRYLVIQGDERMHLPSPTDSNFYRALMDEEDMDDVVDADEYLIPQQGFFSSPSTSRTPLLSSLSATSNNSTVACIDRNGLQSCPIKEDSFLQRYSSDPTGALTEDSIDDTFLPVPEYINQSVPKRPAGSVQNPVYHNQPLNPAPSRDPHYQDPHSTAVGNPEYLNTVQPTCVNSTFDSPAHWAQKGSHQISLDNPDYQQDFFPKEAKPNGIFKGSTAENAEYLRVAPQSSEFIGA
Sequence of EGFR L858R/T790M/C797S (P00533 25-1210 T790M/C797S/L858R): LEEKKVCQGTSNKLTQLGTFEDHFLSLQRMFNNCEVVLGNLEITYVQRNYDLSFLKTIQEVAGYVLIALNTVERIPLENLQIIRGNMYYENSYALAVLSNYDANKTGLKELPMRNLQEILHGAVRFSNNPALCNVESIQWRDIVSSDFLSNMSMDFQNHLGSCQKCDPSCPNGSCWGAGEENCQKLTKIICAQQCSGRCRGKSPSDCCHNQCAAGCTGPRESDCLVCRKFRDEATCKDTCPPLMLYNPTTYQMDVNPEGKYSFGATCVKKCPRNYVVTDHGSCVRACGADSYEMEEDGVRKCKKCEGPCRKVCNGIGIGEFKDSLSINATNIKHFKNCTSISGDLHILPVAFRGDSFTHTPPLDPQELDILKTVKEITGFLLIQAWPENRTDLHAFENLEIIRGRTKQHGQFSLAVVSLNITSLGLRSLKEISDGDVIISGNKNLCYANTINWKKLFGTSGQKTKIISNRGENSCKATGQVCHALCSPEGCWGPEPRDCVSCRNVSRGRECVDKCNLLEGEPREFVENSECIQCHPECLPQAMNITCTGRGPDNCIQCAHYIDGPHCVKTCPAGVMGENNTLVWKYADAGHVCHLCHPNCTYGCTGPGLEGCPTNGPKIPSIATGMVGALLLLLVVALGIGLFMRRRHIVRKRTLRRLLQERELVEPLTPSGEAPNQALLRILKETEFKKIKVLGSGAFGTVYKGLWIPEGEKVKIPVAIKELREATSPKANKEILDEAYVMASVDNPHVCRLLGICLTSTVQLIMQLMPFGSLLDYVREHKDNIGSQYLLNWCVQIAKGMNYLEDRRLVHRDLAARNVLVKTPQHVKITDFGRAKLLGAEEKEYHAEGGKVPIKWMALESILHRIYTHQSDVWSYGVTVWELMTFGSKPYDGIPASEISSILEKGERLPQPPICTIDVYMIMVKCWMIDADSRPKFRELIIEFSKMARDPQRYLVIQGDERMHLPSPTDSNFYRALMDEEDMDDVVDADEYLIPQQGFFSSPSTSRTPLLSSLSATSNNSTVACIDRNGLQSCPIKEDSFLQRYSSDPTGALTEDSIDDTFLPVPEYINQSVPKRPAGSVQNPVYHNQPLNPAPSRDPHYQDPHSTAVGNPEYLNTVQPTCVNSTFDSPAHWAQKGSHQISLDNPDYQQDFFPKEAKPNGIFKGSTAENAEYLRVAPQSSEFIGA
Sequence of EGFR wildtype (WT) (P00533 25-1210): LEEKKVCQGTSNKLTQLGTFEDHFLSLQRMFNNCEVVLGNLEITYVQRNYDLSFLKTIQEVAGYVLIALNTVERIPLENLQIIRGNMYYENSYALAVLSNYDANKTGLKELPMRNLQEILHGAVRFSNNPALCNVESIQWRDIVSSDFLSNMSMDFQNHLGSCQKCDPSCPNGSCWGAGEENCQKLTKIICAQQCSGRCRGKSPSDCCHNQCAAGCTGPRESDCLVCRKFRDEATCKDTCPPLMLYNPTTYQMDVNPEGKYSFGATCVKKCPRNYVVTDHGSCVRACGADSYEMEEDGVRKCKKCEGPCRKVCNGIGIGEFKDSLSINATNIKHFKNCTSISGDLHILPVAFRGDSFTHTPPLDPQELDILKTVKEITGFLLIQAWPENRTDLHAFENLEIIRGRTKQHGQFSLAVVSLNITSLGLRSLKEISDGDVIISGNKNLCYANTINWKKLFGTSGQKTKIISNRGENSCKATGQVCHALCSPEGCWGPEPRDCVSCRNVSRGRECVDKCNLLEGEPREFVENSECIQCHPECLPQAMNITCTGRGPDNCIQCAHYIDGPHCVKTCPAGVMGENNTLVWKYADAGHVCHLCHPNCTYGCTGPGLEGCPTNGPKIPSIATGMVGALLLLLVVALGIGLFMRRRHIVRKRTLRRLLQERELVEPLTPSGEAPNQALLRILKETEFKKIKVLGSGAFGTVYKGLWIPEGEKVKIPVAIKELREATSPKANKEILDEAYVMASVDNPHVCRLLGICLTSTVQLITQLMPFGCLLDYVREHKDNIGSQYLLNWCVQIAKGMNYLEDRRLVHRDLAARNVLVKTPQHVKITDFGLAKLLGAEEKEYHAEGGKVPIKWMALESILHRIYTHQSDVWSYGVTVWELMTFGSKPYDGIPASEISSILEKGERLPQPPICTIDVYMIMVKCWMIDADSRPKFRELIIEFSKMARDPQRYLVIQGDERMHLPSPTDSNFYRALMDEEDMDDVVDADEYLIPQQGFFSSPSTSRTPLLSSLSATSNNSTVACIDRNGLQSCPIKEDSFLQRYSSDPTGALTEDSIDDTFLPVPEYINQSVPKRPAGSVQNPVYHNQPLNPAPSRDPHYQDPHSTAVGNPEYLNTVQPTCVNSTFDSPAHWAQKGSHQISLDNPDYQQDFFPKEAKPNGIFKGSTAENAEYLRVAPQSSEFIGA

SMILES | IC50 (EGFR del19/C797S; [1]) | IC50 (EGFR L858R/T790M/C797S; [2]) | IC50 (EGFR wildtype (WT); [4]) | IC50 (EGFR del19/T790M/C797S; [5]) | IC50 (EGFR del19/C797S; [6]) | IC50 (EGFR L858R/C797S; [8]) | IC50 (EGFR wildtype (WT); [9]) | other results
CC(C)n1cc(C#Cc2cc(Nc3ccnc(-c4cnn(S(=O)(=O)C5CC5)c4)n3)ncc2-c2cnn(C3CC3)c2)cn1 [Example 6, N-(5-(1-Cyclopropyl-1H-pyrazol-4-yl)-4-((1-isopropyl-1H-pyrazol-4-yl)ethynyl)pyridin-2-yl)-2-(1-(cyclopropylsulfonyl)-1H-pyrazol-4-yl)pyrimidin-4-amine] | 347 nM | 19.5 nM | – | 16.1 nM | – | – | – | –
O=S(=O)(C1CC1)n1cc(-c2nccc(Nc3cc(N[C@H]4CC[C@@H](NCC(F)F)CC4)c(-c4cc5n(n4)CCCC5)cn3)n2)cn1 [Example 63, N^2-(2-(1-(Cyclopropylsulfonyl)-1H-pyrazol-4-yl)pyrimidin-4-yl)-N^4-((1s,4s)-4-((2,2-difluoroethyl)amino)cyclohexyl)-5-(4,5,6,7-tetrahydropyrazolo[1,5-a]pyridin-2-yl)pyridine-2,4-diamine] | 1.8 nM | 0.7 nM | 4.4 nM | – | 2.2 nM | 7.7 nM | > 10000 nM | IC50 (EGFR L858R/T790M/C797S; [7]): 3.3 nM; IC50 (EGFR L858R/C797S; [3]): 2.2 nM
O=S(=O)(C1CC1)n1cc(-c2nccc(Nc3cc(C#Cc4cnn(C5CC5)c4)c(-c4cnn(C5CC5)c4)cn3)n2)cn1 [Example 5, N-(5-(1-Cyclopropyl-1H-pyrazol-4-yl)-4-((1-cyclopropyl-1H-pyrazol-4-yl)ethynyl)pyridin-2-yl)-2-(1-(cyclopropylsulfonyl)-1H-pyrazol-4-yl)pyrimidin-4-amine] | 317 nM | 13.2 nM | – | 10.6 nM | – | – | – | –
Cn1cc(C#Cc2cc(Nc3ccnc(-c4cnn(S(=O)(=O)C5CC5)c4)n3)ncc2-c2cnn(CC3CC3)c2)cn1 [Example 3, N-(5-(1-(Cyclopropylmethyl)-1H-pyrazol-4-yl)-4-((1-methyl-1H-pyrazol-4-yl)ethynyl)pyridin-2-yl)-2-(1-(cyclopropylsulfonyl)-1H-pyrazol-4-yl)pyrimidin-4-amine] | 39.7 nM | – | 229 nM | 6.4 nM | – | – | – | –
Cc1nn(CC(F)(F)F)cc1-c1nccc(Nc2cc(N[C@H]3CC[C@@](C)(O)CC3)c(-c3ccn(C(F)(F)F)n3)cn2)n1 [Example 341, (1s,4s)-1-Methyl-4-((2-((2-(3-methyl-1-(2,2,2-trifluoroethyl)-1H-pyrazol-4-yl)pyrimidin-4-yl)amino)-5-(1-(trifluoromethyl)-1H-pyrazol-3-yl)pyridin-4-yl)amino)cyclohexan-1-ol] | – | – | – | – | – | – | – | IC50 (EGFR del19/C797S; [10]): 22 nM; IC50 (EGFR L858R/T790M/C797S; [11]): 0.9 nM; IC50 (EGFR L858R/C797S; [12]): 14.8 nM; IC50 (EGFR wildtype (WT); [13]): 48.4 nM
Cn1cc(C#Cc2cc(Nc3ccnc(-c4cnn(S(=O)(=O)C5CC5)c4)n3)ncc2-c2cnn(C3CC3)c2)cn1 [Example 1, N-(5-(1-Cyclopropyl-1H-pyrazol-4-yl)-4-((1-methyl-1H-pyrazol-4-yl)ethynyl)pyridin-2-yl)-2-(1-(cyclopropylsulfonyl)-1H-pyrazol-4-yl)pyrimidin-4-amine] | 63 nM | 5.9 nM | 88.5 nM | 99 nM | – | – | – | –
Cn1nc(-c2cnc(Nc3ccnc(-c4cnn(CC(F)F)c4)n3)cc2N[C@H]2CC[C@@H](CCO)CC2)cc1C(F)(F)F [Example 333, 2-((1s,4s)-4-((2-((2-(1-(2,2-Difluoroethyl)-1H-pyrazol-4-yl)pyrimidin-4-yl)amino)-5-(1-methyl-5-(trifluoromethyl)-1H-pyrazol-3-yl)pyridin-4-yl)amino)cyclohexyl)ethan-1-ol] | – | – | – | – | – | – | – | IC50 (EGFR del19/T790M/C797S; Km ATP, read-out: IC50 del19/T790M/C797S, Km ATP): 4.4 nM; IC50 (EGFR del19/C797S; [10]): 16.5 nM; IC50 (EGFR L858R/T790M/C797S; [11]): 2.9 nM; IC50 (EGFR wildtype (WT); [13]): 61.5 nM
C[C@]1(O)CC[C@@H](Nc2cc(Nc3ccnc(-c4cnn(S(=O)(=O)C5CC5)c4)n3)ncc2-c2ccn(C(F)F)n2)CC1 [Example 10, (1s,4s)-4-((2-((2-(1-(Cyclopropylsulfonyl)-1H-pyrazol-4-yl)pyrimidin-4-yl)amino)-5-(1-(difluoromethyl)-1H-pyrazol-3-yl)pyridin-4-yl)amino)-1-methylcyclohexan-1-ol] | – | – | – | – | 3.2 nM | 2.7 nM | 1060 nM | IC50 (EGFR L858R/T790M/C797S; [7]): 1.3 nM
CC(C)(O)[C@H]1CC[C@@H](Nc2nc(Nc3ccnc(-c4cnn(S(=O)(=O)C5CC5)c4)c3)ncc2-c2ccn(C(F)F)n2)CC1 [Example 365, 2-((1s,4s)-4-((2-((2-(1-(Cyclopropylsulfonyl)-1H-pyrazol-4-yl)pyridin-4-yl)amino)-5-(1-(difluoromethyl)-1H-pyrazol-3-yl)pyrimidin-4-yl)amino)cyclohexyl)propan-2-ol] | – | – | – | – | – | – | – | IC50 (EGFR del19/C797S; [10]): 45.4 nM; IC50 (EGFR L858R/T790M/C797S; [11]): 2.3 nM; IC50 (EGFR L858R/C797S; [12]): 48.4 nM; IC50 (EGFR wildtype (WT); [13]): 306 nM
CC(C)(O)c1nc(-c2cnc(Nc3ccnc(-c4cnn(S(=O)(=O)C5CC5)c4)n3)cc2N[C@H]2CC[C@@](C)(O)CC2)cs1 [Example 93, (1s,4s)-4-((2-((2-(1-(Cyclopropylsulfonyl)-1H-pyrazol-4-yl)pyrimidin-4-yl)amino)-5-(2-(2-hydroxypropan-2-yl)thiazol-4-yl)pyridin-4-yl)amino)-1-methylcyclohexan-1-ol] | – | – | – | – | 5.3 nM | 15.7 nM | > 10000 nM | IC50 (EGFR del19/T790M/C797S; IC50 del19/T790M/C797S (nM) 100 μM ATP, 100 μM ATP): 4 nM

Now from value to molecule, other results behind:

IC50 (EGFR del19/C797S; [1]) | IC50 (EGFR L858R/T790M/C797S; [2]) | IC50 (EGFR wildtype (WT); [4]) | IC50 (EGFR del19/T790M/C797S; [5]) | IC50 (EGFR del19/C797S; [6]) | IC50 (EGFR L858R/C797S; [8]) | IC50 (EGFR wildtype (WT); [9]) | SMILES | other results
93.9 nM | 0.8 nM | 51.5 nM | – | – | – | – | OCC[C@H]1CC[C@H](Nc2cc(Nc3ccnc(-c4cnn(CC(F)F)c4)n3)ncc2-c2ccn(C(F)F)n2)CC1 [Example 147, 2-((1r,4r)-4-((2-((2-(1-(2,2-Difluoroethyl)-1H-pyrazol-4-yl)pyrimidin-4-yl)amino)-5-(1-(difluoromethyl)-1H-pyrazol-3-yl)pyridin-4-yl)amino)cyclohexyl)ethan-1-ol] | IC50 (EGFR L858R/C797S; [3]): 32.6 nM
15.4 nM | 0.5 nM | 282 nM | 0.7 nM | – | – | – | C[C@]1(O)CC[C@@H](Nc2cc(Nc3ccnc(-c4cnn(S(=O)(=O)C5CC5)c4)n3)ncc2-n2ccc(OC(F)F)n2)CC1 [Example 187, (1s,4s)-4-((2-((2-(1-(Cyclopropylsulfonyl)-1H-pyrazol-4-yl)pyrimidin-4-yl)amino)-5-(3-(difluoromethoxy)-1H-pyrazol-1-yl)pyridin-4-yl)amino)-1-methylcyclohexan-1-ol] | –
– | – | 17.4 nM | – | 2.7 nM | 27.4 nM | > 10000 nM | C[C@]1(O)CC[C@@H](Nc2cc(Nc3ccnc(-c4cnn(S(=O)(=O)C5CC5)c4)n3)ncc2-c2ccn(CC(F)(F)F)n2)CC1 [Example 289, (1s,4s)-4-((2-((2-(1-(Cyclopropylsulfonyl)-1H-pyrazol-4-yl)pyrimidin-4-yl)amino)-5-(1-(2,2,2-trifluoroethyl)-1H-pyrazol-3-yl)pyridin-4-yl)amino)-1-methylcyclohexan-1-ol] | –
0.7 nM | 0.5 nM | 5.7 nM | – | 1.1 nM | 58 nM | > 10000 nM | O=S(=O)(C1CC1)n1cc(-c2nccc(Nc3cc(N[C@H]4CC[C@@H](CCO)CC4)c(-c4ccn(C(F)F)n4)cn3)n2)cn1 [Example 135, 2-((1s,4s)-4-((2-((2-(1-(Cyclopropylsulfonyl)-1H-pyrazol-4-yl)pyrimidin-4-yl)amino)-5-(1-(difluoromethyl)-1H-pyrazol-3-yl)pyridin-4-yl)amino)cyclohexyl)ethan-1-ol] | IC50 (EGFR L858R/T790M/C797S; [7]): 2.1 nM; IC50 (EGFR L858R/C797S; [3]): 4.5 nM
2.3 nM | 0.7 nM | 3.2 nM | – | – | – | – | C[C@]1(O)CC[C@@H](Nc2cc(Nc3ccnc(-c4cnn(S(=O)(=O)C5CC5)c4)n3)ncc2-c2ccn(C(F)(F)F)n2)CC1 [Example 285, (1s,4s)-4-((2-((2-(1-(Cyclopropylsulfonyl)-1H-pyrazol-4-yl)pyrimidin-4-yl)amino)-5-(1-(trifluoromethyl)-1H-pyrazol-3-yl)pyridin-4-yl)amino)-1-methylcyclohexan-1-ol] | IC50 (EGFR L858R/C797S; [3]): 0.6 nM
– | – | 5.9 nM | 3.1 nM | 0.9 nM | – | 7310 nM | C[C@]1(O)CC[C@@H](Nc2cc(Nc3ccnc(-c4cnn(S(=O)(=O)C5CC5)c4)n3)ncc2-c2cn(C(F)F)cn2)CC1 [Example 273, (1s,4s)-4-((2-((2-(1-(Cyclopropylsulfonyl)-1H-pyrazol-4-yl)pyrimidin-4-yl)amino)-5-(1-(difluoromethyl)-1H-imidazol-4-yl)pyridin-4-yl)amino)-1-methylcyclohexan-1-ol] | IC50 (EGFR L858R/T790M/C797S; [7]): 1.3 nM
